# Data as given in patent US20220160712A1, “METHODS OF TREATING RHEUMATOID ARTHRITIS AND FOR PREDICTING THE RESPONSE TO METHOTREXATE” (CHAN ZUCKERBERG BIOHUB, INC., priority 2020, published 2022).
# Tests used:
# C. symbiosum = test: RNA-seq after MTX treatment; assay type: cell-based, Clostridium symbiosum; settings: MTX 100 μg/ml, 30 minutes; padj<0.2, DESeq
# Description: Genomes were obtained from NCBI's GenBank Assembly database. Culture media was composed of BHI+and allowed to equilibrate in an anaerobic environment prior to use. Briefly, bacteria were cultured in BHI+at 37° C. in an anaerobic chamber. Cultures for each isolate were grown to mid-exponential (achieving an OD600˜0.5), aliquoted into triplicates, treated for 30 minutes with either DMSO or MTX 100 μg/ml, and then removed from the anaerobic chamber. […]
# Total RNA was subjected to rRNA depletion using Ribo-Zero Bacterial rRNA Depletion (Illumina, catalog #: MRZB12424), following the manufacturer's protocol. […] For each sample, fastq files are available in NCBI's Sequence Read Archive (SRA), accession number PRJNA656577.
# Reads were trimmed using Trimmomatic (v0.32) (Bolger, A. M., et al., (2014), Bioinformatics 30, 2114-2120), and ribosomal reads were removed using SortMeRNA (v2.1) (Kopylova, E., et al., (2012), Bioinformatics 28, 3211-3217). Reads were mapped to reference genomes using Bowtie2 (Langmead, B., and Salzberg, S. L. (2012), Nat Methods 9, 357-359) using the following options: -q, —met file, —end-to-end, —sensitive. […]
# [1] = newly diagnosed RA patients; cited from earlier work
structure (smiles),measurement,setting,value
"CN(Cc1cnc2nc(N)nc(N)c2n1)c1ccc(C(=O)N[C@@H](CCC(=O)O)C(=O)O)cc1 [MTX, methotrexate]",number of differentially expressed genes,C. symbiosum,55 genes
same,patients with a robust response without escalation of therapy,[1],~33%
